# Results published in article PMC8747639, “Novel Angiotensin-Converting Enzyme Inhibitory Peptides Identified from Walnut Glutelin-1 Hydrolysates: Molecular Interaction, Stability, and Antihypertensive Effects” (Nutrients, 2021).
# No end group written: not given here.
# Assays:
# [1] = tested on: spontaneously hypertensive rats (SHRs); experiment: BP measurement during four weeks of oral administration in SHR (tail-cuff); type: in vivo, rat; details: daily oral; for SBP compared with the SHRs group after one week of oral administration: peptides 5 and 15 mg/kg, p < 0.01
# Description: (§1) Thirty 10-week-old male spontaneously hypertensive rats (SHRs) and five normal male rats of the same age were used for the experiment. The rats were placed at 25 °C ± 1 °C, relative humidity of 45–55% and a light/dark cycle for 12 h. SHRs were randomly divided into 6 groups after one week of adaptation, while rats in the normal group (NG) were used as controls. The administration was continued for 28 days.
# (§2) Rats in the normal and SHR groups were given 1.0 mL of 0.9% saline per day, while the positive control group was given captopril (10 mg/kg body weight) per day. The ACE inhibitory peptides treatment groups’ low and high doses were fed orally with 5 and 15 mg/kg (based on their body weight) by dissolving the peptides in 1.0 mL of 0.9% normal saline. The rats’ BP was measured by the tail-cuff method. The systolic blood pressure (SBP), diastolic blood pressure (DBP), and heart rate of all rats were measured after a single oral administration (0–8 h) and weekly (0–4 weeks). All measurements were repeated at least three times so the average value could be calculated.
# [2] = tested on: serum ET-1, NO, ACE, Ang II, AGT, ALD; experiment: Serum ET-1, NO, ACE, Ang II, AGT and ALD in SHR (ELISA / NO kit); type: in vivo, rat; details: 28 days oral administration; for serum ACE level of the SHR control group compared with the treated group / serum AGT level of the SHR control group compared with the treated group / serum ALD level of the SHR control group compared with the treated group / serum AngII level of the SHR control group compared with the treated group: p < 0.05
# Excerpt: (§3) The Grain, Oil and Protein Engineering Laboratory of Shaanxi Normal University (Xi’an, China) provided the defatted walnut meal. ACE (from rabbit lung) and hippuryl-histidyl-leucine (HHL) were purchased from Sigma Co., St. Louis, MO, USA. Pepsin (3 × 10^3 U/g) was obtained from Solarbio Science & Technology, Co., Ltd. (Beijing, China). High-performance liquid chromatography grade acetonitrile and trifluoroacetic acid were purchased from Fischer Scientific Co. (Waltham, MA, USA). The enzyme-linked immunosorbent assay kit for the detection of ACE, angiotensinogen (AGT), aldosterone (ALD), and Endothelin-1(ET-1) was purchased from Jiangsu Jingmei Biotechnology Co., Ltd. (YanCheng, China). The enzyme-linked immunosorbent assay kit for the detection of Ang II was obtained from Shanghai Kexing Biotechnology Co., Ltd., (Shanghai, China). and the nitric oxide (NO) detection kit was a product of Nanjing Jiancheng Institute of Biological Engineering (Nanjing, China), and other chemical reagents used in the experiment were of analytical grade.
# The upper serum samples were obtained by centrifugation at 3000× g at 4 °C for 10 min after the blood was taken from the abdominal aorta of all rats. The samples were stored at −20 °C, and the serum expression was detected using the ELISA kit (double antibody sandwich enzyme-linked immunosorbent assay).
# [3] = tested on: spontaneously hypertensive rats (SHRs); experiment: BP measurement after single oral administration in SHR (tail-cuff); type: in vivo, rat; details: single intragastric administration, 0-8 h
# Description: as §1, §2
# [4] = tested on: pepsin and trypsin; experiment: GI digestion stability of the synthesized peptides (pepsin, trypsin), read out as ACE inhibitory activity; type: in vitro ADME; details: pepsin 1 mg/mL pH 2.0 37 °C 3 h, or trypsin 1.0 mg/mL pH 8.0 37 °C 4 h
# Description: We conducted a GI digestion stability analysis of the synthesized peptides according to the method proposed by Khueychai et al. (2018) with slight modifications. Briefly, the peptide solution was incubated with 1 mg/mL of pepsin solution (0.1 M HCl, pH 2.0) at 37 °C for 3 h. Subsequently, the pH value of the mixed solution was adjusted to 8.0 with 1.0 M NaOH, and 1.0 mg/mL of trypsin added and incubated at 37 °C for 4 h. Finally, the ACE inhibitory activity of the reaction solution could be determined after boiling for 10 min, cooling to room temperature, and centrifuging for 15 min at 10,000× g.
# [5] = Temperature, pH, metal ion, sugar and salt treatment stability of the synthesized peptides, read out as ACE inhibition rate; type: physicochemical; details: 1.0 mg/mL peptide
# Description: The effect of temperature, pH, metal ion, sugar, and salt treatments on the stabilities of two synthesized peptides, were determined by incubating 1.0 mg/mL of VERGRRITSV and FVIEPNITPA at 20 °C, 40 °C, 60 °C, 80 °C, and 100 °C for 2 h; 37 °C for 2 h at pH 2, 4, 6, 8, and 10; with 100 μg/mL of KCl, CaCl2, ZnSO4, MgSO4, and FeSO4 solution at 37 °C for 2 h; with glucose solutions of 2%, 4%, 8%, and 12% at 37 °C for 30 min; with NaCl solutions of 2%, 4%, 8%, and 12% at 37 °C for 30 min, respectively. The ACE inhibition rate was measured immediately after incubation.
# [6] = biological target: T1, ACE (from rabbit lung) (Oryctolagus cuniculus, UniProt P12822); experiment: ACE inhibitory activity (HHL substrate, absorbance); type: biochemical
# T1 construct: ACE (from rabbit lung) and hippuryl-histidyl-leucine (HHL) were purchased from Sigma Co; purchased Sigma Co., St. Louis, MO, USA; host or cells: rabbit lung (tissue-derived)
# T1 sequence (P12822 34-1310): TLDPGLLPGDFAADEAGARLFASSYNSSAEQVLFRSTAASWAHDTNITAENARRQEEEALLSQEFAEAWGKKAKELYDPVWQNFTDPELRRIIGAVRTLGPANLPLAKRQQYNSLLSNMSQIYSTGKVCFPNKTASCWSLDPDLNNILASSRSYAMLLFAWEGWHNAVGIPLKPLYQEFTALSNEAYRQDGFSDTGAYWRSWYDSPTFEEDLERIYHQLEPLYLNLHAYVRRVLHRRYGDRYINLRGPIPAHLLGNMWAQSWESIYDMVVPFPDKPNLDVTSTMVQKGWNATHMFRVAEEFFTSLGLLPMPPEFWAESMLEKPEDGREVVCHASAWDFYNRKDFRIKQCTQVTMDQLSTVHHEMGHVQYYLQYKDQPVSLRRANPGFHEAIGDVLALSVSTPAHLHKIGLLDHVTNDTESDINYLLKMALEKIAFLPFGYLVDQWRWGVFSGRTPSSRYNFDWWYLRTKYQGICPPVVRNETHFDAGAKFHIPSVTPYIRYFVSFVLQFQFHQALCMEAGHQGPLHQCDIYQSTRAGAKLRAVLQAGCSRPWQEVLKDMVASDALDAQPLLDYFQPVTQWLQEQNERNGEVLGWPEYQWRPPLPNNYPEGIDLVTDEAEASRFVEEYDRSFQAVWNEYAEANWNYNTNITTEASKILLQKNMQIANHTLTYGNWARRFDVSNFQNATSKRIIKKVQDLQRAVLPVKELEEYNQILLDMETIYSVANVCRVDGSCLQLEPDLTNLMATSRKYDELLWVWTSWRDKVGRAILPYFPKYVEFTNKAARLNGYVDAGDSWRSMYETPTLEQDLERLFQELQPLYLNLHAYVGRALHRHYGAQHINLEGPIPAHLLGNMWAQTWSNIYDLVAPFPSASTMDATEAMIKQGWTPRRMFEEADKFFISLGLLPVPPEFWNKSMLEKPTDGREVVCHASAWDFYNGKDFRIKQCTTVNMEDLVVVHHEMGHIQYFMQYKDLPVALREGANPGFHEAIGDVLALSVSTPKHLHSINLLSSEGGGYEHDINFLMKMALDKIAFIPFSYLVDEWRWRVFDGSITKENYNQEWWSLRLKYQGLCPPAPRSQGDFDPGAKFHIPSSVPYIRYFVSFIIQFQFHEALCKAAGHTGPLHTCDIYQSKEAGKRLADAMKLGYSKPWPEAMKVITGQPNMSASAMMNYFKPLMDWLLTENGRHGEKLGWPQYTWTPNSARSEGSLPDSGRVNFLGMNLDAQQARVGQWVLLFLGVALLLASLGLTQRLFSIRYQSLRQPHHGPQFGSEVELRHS
# Excerpt: as §3
# Following a previous method reported by Zheng et al. (2017), we could determine the ACE inhibitory activity of glutelin-1 hydrolysate, separated fractions, active peptides, and all the other samples with 1.0 mg/mL Captopril as a positive control. The IC50 value (the concentrationof the inhibitory peptide (μM) had to inhibit 50% of the ACE activity) was calculated by linear regression of the curve.
# The following formula was used to calculate the ACE inhibition rate (%): ACE inhibition rate(%)=(1-As/Ac)×100 where Ac represents ACE solution’s absorbance without an inhibitor and As represents the mixture containing samples.
# [7] = captopril 10 mg/kg, peptides low dose 5 mg/kg, decline reached a maximum in the second week
# [8] = NaCl solutions 2-12%, 37 °C for 30 min, read-out ACE inhibition rate
compound,measurement,setting,value
"C[C@H](CS)C(=O)N1CCC[C@H]1C(=O)O [captopril, reference compound]",SBP compared with the SHRs group after one week of oral administration,[1]; captopril 10 mg/kg,significantly lower
same,DBP course during continuous administration,[1]; [7],began to decrease after one week of continuous administration
same,serum ACE level of the SHR control group compared with the treated group,[2]; ELISA,significantly higher
same,serum AGT level of the SHR control group compared with the treated group,[2]; ELISA,significantly higher
same,serum ALD level of the SHR control group compared with the treated group,[2]; ELISA,significantly higher
same,serum AngII level of the SHR control group compared with the treated group,[2]; ELISA,significantly higher
same,maximal reduction in SBP,[3]; captopril 10 mg/kg,29.5 mmHg
"FVIEPNITPA [FVIEPNITPA, Phe-Val-Ile-Glu-Pro-Asn-Ile-Thr-Pro-Ala]",ACE inhibitory activity under pepsin or trypsin digestion,[4],could still maintain high ACE inhibitory activity
same,"stability of ACE inhibitory activity with metal ions K+, Ca2+ and Mg2+","[5]; 100 μg/mL KCl, CaCl2, MgSO4, 37 °C for 2 h, read-out ACE inhibition rate",showed stability
same,ACE inhibitory activity after temperature treatment,"[5]; 20 °C-60 °C for 2 h, read-out ACE inhibition rate",did not change much
same,effect of change of pH value on ACE inhibitory activity,"[5]; 37 °C for 2 h at pH 2, 4, 6, 8 and 10, read-out ACE inhibition rate",no significant effect
same,ACE inhibition rate after temperature treatment,[5]; 80 °C for 2 h,above 80%
same,ACE inhibition rate after temperature treatment,[5]; 100 °C for 2 h,about 70%
same,stability of ACE inhibitory activity under high-concentration salt conditions,[5]; [8],less stable
same,stability of ACE inhibitory activity under low-concentration salt conditions,[5]; [8],good stability
same,stability of ACE inhibitory activity at low glucose concentration,"[5]; glucose solutions 2-12%, 37 °C for 30 min, low concentrations, read-out ACE inhibition rate",showed stability
same,SBP compared with the SHRs group after one week of oral administration,[1]; captopril 10 mg/kg,significantly lower
same,DBP course during continuous administration,[1]; [7],began to decrease after one week of continuous administration
same,DBP course during continuous administration,[1]; high dose 15 mg/kg,began to decrease in the second week after administration
same,serum ET-1 levels,"[2]; ELISA, SHR control significantly higher than the other groups (p < 0.01)",low ET-1 levels
same,serum ACE level of the SHR control group compared with the treated group,[2]; ELISA,significantly higher
same,serum AGT level of the SHR control group compared with the treated group,[2]; ELISA,significantly higher
same,serum ALD level of the SHR control group compared with the treated group,[2]; ELISA,significantly higher
same,serum AngII level of the SHR control group compared with the treated group,[2]; ELISA,significantly higher
same,serum NO content,"[2]; NO detection kit, SHR control significantly lower than treated groups (p < 0.05)",equivalent to that of the captopril group
same,IC50,"[6]; calculated by linear regression of the curve, read-out: IC50 on angiotensin converting enzyme (ACE)",6.36 µM
same,ACE inhibitory activity compared among fractions or with the glutelin-1 hydrolysate (in words),"[6]; fractions from Sephadex G-15 (1.0 mg/mL) or RP-HPLC, control glutelin-1 hydrolysate before separation",highest ACE inhibitory activity
same,maximal reduction in SBP,[3]; high dose 15 mg/kg,30.4 mmHg
same,maximal reduction in SBP,[3]; low dose 5 mg/kg,23.0 mmHg
